Experimental data from patent publication US20230285280A1, “A DEVICE FOR USE IN THE DELIVERY OF AN ACTIVE AGENT” (ROYAL COLLEGE OF SURGEONS IN IRELAND, priority 2020, published 2023).

Assay: Active agent release from scaffold or scaffold+matrix in PBS at 37° C.
Type: physicochemical
Protocol: Release of nanoparticle-encapsulated active agent (either pirfenidone or prednisolone) from a matrix and release of active agent from a scaffold was assessed in the same manner. In short, one sample (of either a printed mesh (scaffold) or mesh+gel (scaffold and matrix)) per 1.5 mL eppendorf tube was incubated in 1 mL of PBS at 37° C. under agitation in a heated water bath. The release buffer was completely exchanged at selected time points of T=4 hrs, T=24 hrs, T=48 hrs, T=1 week, T=2 weeks, T=3 weeks, and T=4 weeks, T=6 weeks, T=8 weeks, T=10 weeks, T=12 weeks with samples stored at -20° C. until analysis. Release studies were undertaken for up to 28 days and released active agent concentrations were determined via extrapolation from a standard curve. Blank scaffolds (containing no active agent) were tested and readings were subtracted as an additional background control. Samples containing pirfenidone were analysed at 317 nm and samples containing prednisolone were analysed at 245 nm. Using either 3D drug printing or nanoparticle incorporation, it was possible to achieve a rapid release of active agent in the first 24 hours as well as a continuous release of drug over a 28 day period (FIG. 19).

Row | daily and cumulative prednisolone drug release (from 3D printed PCL scaffolds with no surrounding matrix, FIG. 10) | cumulative prednisolone release (from nanoparticles in a freeze-dried scaffold and hyaluronic acid matrix, FIG. 11) | pirfenidone release when scaffold combined with the hyaluronic acid matrix (higher (50 kDa) molecular weight PCL scaffold, in the presence of the hydrated matrix, FIG. 9B) | pirfenidone release when scaffold combined with the hyaluronic acid matrix (lower molecular weight PCL scaffold, added to the matrix, FIG. 9A) | Structure (SMILES)
1 | biphasic release up to 28 days | rapid and sustained release | – | – | C[C@]12C=CC(=O)C=C1CC[C@@H]1[C@@H]2[C@@H](O)C[C@@]2(C)[C@H]1CC[C@]2(O)C(=O)CO [prednisolone, 11β-11,17,21-Trihydroxypregna-1,4-diene-3,20-dione]
2 | – | – | negligible difference | release was slowed | Cc1ccc(=O)n(-c2ccccc2)c1 [pirfenidone, 5-Methyl-1-phenylpyridin-2-one]
